Consider twelve compounds from US7307088B2, “Substituted anthranilic amide derivatives and methods of use” (Amgen Inc., priority 2002, dated 2007).

SMILES strings stand for the structures.

In this experiment the test system is VEGF-stimulated HUVEC proliferation (Human Umbilical Vein Endothelial cells). The experiment can be described thus: HUVEC Proliferation Assay. The format is cell-based. To be noted: 72 h, CyQuant dye, read-out: inhibited VEGF-stimulated HUVEC proliferation at a level (IC50 values determined). The protocol: Human Umbilical Vein Endothelial cells are purchased from Clonetics, Inc., as cryopreserved cells harvested from a pool of donors. These cells, at passage 1, are thawed and expanded in EBM-2 complete medium, until passage 2 or 3. The cells are trypsinized, washed in DMEM+10% FBS+antibiotics, and spun at 1000 rpm for 10 min. Prior to centrifugation of the cells, a small amount is collected for a cell count. After centrifugation, the medium is discarded, and the cells are resuspended in the appropriate volume of DMEM+10% FBS+antibiotics to achieve a concentration of 3×10^5 cells/mL. Another cell count is performed to confirm the cell concentration. The cells are diluted to 3×10^4 cells/mL in DMEM+10% FBS+antibiotics, and 100 μL of cells are added to a 96-well plate. The cells are incubated at 37° C. for 22 h.
Prior to the completion of the incubation period, compound dilutions are prepared. Five-point, five-fold serial dilutions are prepared in DMSO, at concentrations 400-fold greater than the final concentrations desired. 2.5 μL of each compound dilution are diluted further in a total of 1 mL DMEM+10% FBS+antibiotics (400× dilution). Medium containing 0.25% DMSO is also prepared for the 0 μM compound sample. At the 22 h timepoint, the medium is removed from the cells, and 100 μL of each compound dilution is added. The cells are incubated at 37° C. for 2-3 h.
During the compound pre-incubation period, the growth factors are diluted to the appropriate concentrations. Solutions of DMEM+10% FBS+antibiotics, containing either VEGF or bFGF at the following concentrations: 50, 10, 2, 0.4, 0.08, and 0 ng/mL are prepared. For the compound-treated cells, solutions of VEGF at 550 ng/mL or bFGF at 220 ng/mL for 50 ng/mL or 20 ng/mL final concentrations, respectively, are prepared since 10 μL of each will be added to the cells (110 μL final volume). At the appropriate time after adding the compounds, the growth factors are added. VEGF is added to one set of plates, while bFGF is added to another set of plates. For the growth factor control curves, the media on wells B4-G6 of plates 1 and 2 are replaced with media containing VEGF or bFGF at the varying concentrations (50-0 ng/mL). The cells are incubated at 37° C. for an additional 72 h.
At the completion of the 72 h incubation period, the medium is removed, and the cells are washed twice with PBS. After the second wash with PBS, the plates are tapped gently to remove excess PBS, and the cells are placed at −70° C. for at least 30 min. The cells are thawed and analyzed using the CyQuant fluorescent dye (Molecular Probes C-7026), following the manufacturer's recommendations. The plates are read on a Victor/Wallac 1420 workstation at 485 nm/530 nm (excitation/emission). Raw data are collected and analyzed using a 4-parameter fit equation in XLFit. IC50 values are then determined.
In the case of `CC1(C)CNCc2cc(NC(=O)c3ccc(F)cc3NCc3ccc(F)cc3)ccc21` [Example 107, N-(4,4-Dimethyl-1,2,3,4-tetrahydro-isoquinolin-7-yl)-4-fluoro-6-(4-fluoro-benzylamino)-benzamide], the IC50 was under 1000 nM. With `CC1(C)CNCc2cc(NC(=O)c3cc(F)c(F)cc3NCc3ccc(F)cc3)ccc21` [Example 108, N-(4,4-Dimethyl-1,2,3,4-tetrahydro-isoquinolin-7-yl)-3,4-difluoro-6-(4-fluoro-benzylamino)-benzamide] the figure was under 1000 nM; with `CC(Nc1ccccc1C(=O)Nc1ccc2c(c1)CNCC2(C)C)c1ccnc(N)n1` (stereo not drawn) [Example 127, 2-[1-(2-Amino-pyrimidin-4-yl)-ethylamino]-N-(4,4-dimethyl-1,2,3,4-tetrahydro-isoquinolin-7-yl)-benzamide], under 100 nM. Consider `CNc1nccc([C@@H](C)Nc2ccccc2C(=O)Nc2ccc3c(c2)N(C(C)=O)CC32CC2)n1` [Example 132, N-(1-Acetyl-1′,2′-dihydrospiro[cyclopropane-1,3′-[3H]indol]-6′-yl)-2-[[(1R)-1-[2-(methylamino)-4-pyrimidinyl]ethyl]amino]-benzamide], for which the IC50 is under 1000 nM.

On to `CN1CCN(C(=O)N2CC(C)(C)c3ccc(NC(=O)c4ccccc4NCc4ccc(F)cc4)cc32)CC1` [Example 8, N-[3,3-Dimethyl-1-(4-methyl-piperazine-1-carbonyl)-2,3-dihydro-1H-indol-6-yl]-2-(4-fluoro-benzylamino)-benzamide], for which the IC50 was under 1000 nM.

In the case of `CC(Nc1ccccc1C(=O)Nc1ccc2c(c1)CN(C(=O)OC(C)(C)C)CC2(C)C)c1ccnc(N)n1` (stereo not drawn) [Example 126, tert-Butyl 7-{2-[1-(2-amino-pyrimidin-4-yl)-ethylamino]-benzoylamino}-4,4-dimethyl-3,4-dihydro-1H-isoquinoline-2-carboxylate], the IC50 was under 1000 nM.

As to `CC1(C)CNCc2cc(NC(=O)c3ccccc3NCc3cccc4nccnc34)ccc21` [Example 124, N-(4,4-Dimethyl-1,2,3,4-tetrahydro-isoquinolin-7-yl)-2-[(quinoxalin-5-ylmethyl)-amino]-benzamide], the IC50 is under 1000 nM. Then `CC(=O)N1CC(C)(C)c2ccc(NC(=O)c3ccccc3NCc3ccc(F)cc3)cc21` [Example 3, N-(1-Acetyl-3,3-dimethyl-2,3-dihydro-1H-indol-6-yl)-2-(4-fluoro-benzylamino)-benzamide], with under 1000 nM. As for `CNc1nccc([C@H](C)Nc2ccccc2C(=O)Nc2ccc3c(c2)CNCC3(C)C)n1` [Example 130, (S)—N-(4,4-Dimethyl-1,2,3,4-tetrahydro-isoquinolin-7-yl)-2-[1-(2-methylamino-pyrimidin-4-yl)-ethylamino]-benzamide], the IC50 was under 1000 nM. With `CC(=O)N1CC(C)(C)c2ccc(NC(=O)c3ccccc3NCc3cc[n+]([O-])cc3)cc21` [Example 10, N-(1-Acetyl-3,3-dimthyl-2,3-dihydro-1H-indol-6-yl)-2-[(1-oxy-pyridin-4-ylmethyl)-amino]-benzamide] the figure was under 1000 nM. For `CC(=O)N1Cc2cc(NC(=O)c3ccccc3NCc3ccnc4ccccc34)ccc2C(C)(C)C1` [Example 13, N-(2-Acetyl-4,4-dimthyl-1,2,3,4-tetrahydro-isoquinolin-7-yl)-2-[(quinolin-4-ylmethyl)-amino]-benzamide], the IC50 is under 1000 nM. Turning to `CC1(C)CNCc2cc(NC(=O)c3ccccc3NCc3c[nH]c4ncccc34)ccc21` [Example 113, N-(4,4-Dimethyl-1,2,3,4-tetrahydro-isoquinolin-7-yl)-2-[(1H-pyrrolo [2,3-b]pyridin-3-ylmethyl)-amino]-benzamide], the IC50 is under 1000 nM.
